Reference: patent publication US5089623A, “Certain imidate insecticides” (Imperial Chemical Industries Plc, priority 1990, dated 1992)

Columns and labels:
Assay type in all cases: in vivo
[1] = tested on: Tobacco Budworm [Heliothis virescens (Fabricius)] eggs; experiment: Tobacco budworm egg test (TBW-E); settings: percent in solution
Description: Eggs: Paper towel patches of 2-day old eggs of the tobacco budworm were dipped in acetone solutions of the test compound and placed in petri dishes containing a portion of larval rearing medium. […] Test concentrations ranged from 0.1% downward.

[2] = tested on: Cabbage Looper [Trichoplusia ni (Hubner)]; experiment: Cabbage looper test (CL); settings: second-instar larvae, 3-5 days, percent in solution
[3] = tested on: Housefly [Musca domestica]; experiment: Housefly insecticidal test (HF); settings: per 25 female houseflies, 48 hours

SMILES	LC50 TBW E [1]	LC50 CL [2]	LC50 HF [3]
Cc1ccc(Cl)cc1N=C(OCc1cccc(Oc2ccccc2)c1)C(C)C [Compound 263]	> 0.1%	0.05%	> 100 µg
Cc1cccc(N=C(OCc2cccc(Oc3ccccc3)c2)C(C)C)c1C [Compound 148]	0.025%	0.0025%	18 µg
Cc1ccc(N=C(OCc2cccc(Oc3ccccc3)c2)C(C)C)c(Cl)c1 [Compound 94]	0.075%	0.0045%	44 µg
COc1cccc(N=C(OCc2cccc(Oc3ccc(F)cc3)c2)C(C)C)c1 [Compound 201]	> 0.1%	0.004%	15 µg
Cc1c(COC(=Nc2ccc(F)cc2)C(C)C)cccc1-c1ccccc1 [Compound 458]	> 0.05%	0.007%	100 µg
Cc1ccc(N=C(OCc2cccc(Oc3ccccc3)c2)C(C)C)cc1C [Compound 158]	0.1%	0.003%	9 µg
CC(C)C(=Nc1cccc(C(F)(F)F)c1)OCc1ccc(OCc2ccccc2)cc1 [Compound 476]	> 0.1%	0.015%	> 100 µg
CC1CC1C(=Nc1ccc(Cl)cc1)OCc1cccc(Oc2ccccc2)c1 (stereo not drawn) [Compound 15]	> 0.01%	0.025%	> 100 µg
CC(C)C(=Nc1ccc(F)c(Br)c1)OCc1cccc(Oc2ccc(Br)cc2)c1 [Compound 276]	0.1%	0.002%	39 µg
CCC(=Nc1ccc(Cl)c(Cl)c1)OCc1cccc(Oc2ccccc2)c1 [Compound 36]	> 0.01%	0.024%	20 µg
CC(C)C(=Nc1ccc(C#N)cc1)OCc1cccc(Oc2cccc(Cl)c2)c1 [Compound 208]	> 0.1%	0.0035%	27 µg
CC(C)C(=Nc1ccc(Cl)c(C(F)(F)F)c1)OCc1cccc(Oc2cccc(F)c2)c1 [Compound 195]	> 0.1%	0.002%	> 100 µg
CC(C)C(=Nc1ccc(F)c(F)c1)OCc1cccc(Oc2ccc(C#N)cc2)c1 [Compound 212]	0.045%	0.0005%	20 µg
Cc1ccc(Cl)c(N=C(OCc2cccc(Oc3ccccc3)c2)C(C)C)c1 [Compound 93]	> 0.1%	0.005%	64 µg
CC(Cl)C(=Nc1ccc(Cl)c(Cl)c1)OCc1cccc(Oc2ccccc2)c1 (stereo not drawn) [Compound 27]	> 0.1%	0.04%	> 100 µg
CSc1ccc(N=C(OCc2cccc(Oc3ccccc3)c2)C(Cl)Cl)cc1 [Compound 141]	> 0.1%	< 0.1%	35 µg
Cc1ccc(Oc2cccc(COC(=Nc3ccc(F)cc3)C(C)C)c2)cc1 [Compound 231]	> 0.1%	0.003%	> 100 µg
CC(C)C(=Nc1ccc(F)c(Cl)c1)OCc1cc(F)cc(Oc2ccc(F)cc2)c1 [Compound 327]	> 0.1%	0.005%	> 100 µg
